Legend:
[1] = tested on: HDACs HeLa cells nuclear extract; test: HDAC inhibitory activity, fluorometric kit, HeLa cell nuclear extract; format: biochemical, human; settings: HeLa cell nuclear extract as HDAC source
α-SMA expression in CFs = test: α-SMA expression levels in cardiac fibroblasts, western blot; format: cell-based, rat; settings: derivatives 5 μM (TSA 0.1 μM) for 48 h in presence of TGF-β1
Procedure: For this purpose, a fixed concentration of 5a, 6a, 7a and 8a derivatives in the presence/absence of TGF–β1 (a strong inducer of CFs–to–CMFs differentiation), was studied, and α–SMA expression levels were measured by using the western blot technique. TSA was used as a control and also for comparative purposes.
(§1) For the analysis of the protein expression of histone H4–acetylated (ac–H4) and total H4 histone, a number of 1 × 10^6 of CFs seeded in 60 mm plates was used, which were incubated with the inhibitory compounds at a concentration of 10 μM, in the absence/presence of TGF–β1(5ng/mL) for 4 h. Subsequently, total histones were extracted by the technique of saline precipitation (high salt extraction). Briefly, CFs were scraped from the plates with 1 mL of cold PBS transferring their contents to Eppendorf tubes to be centrifuged for 60 s at 1500 rpm at 4 °C and re–suspended in 400 μL of cold buffer A (10 mM 4-(2-hydroxyethyl)-1-piperazineethanesulfonic acid-KOH (HEPES-KOH) adjusted to pH 7.9, 1.5 mM MgCl2, 10 mM KCl, 0.5 mM dithiothreitol and 0.2 mM phenylmethylsulfonyl fluoride (PMSF). The suspension is left on ice for 10 min and then placed in the vortex for 10 s. The samples were centrifuged for 60 s, subsequently discarding the supernatant fraction. The obtained pellet was re-suspended in 60 μL of cold C buffer (20 mM HEPES-KOH adjusted to pH 7.9, 25% glycerol, 420 mM NaCl, 1.5 mM MgCl2, 0.2 mM EDTA, dithiothreitol 0.5 mM and 0.2 mM PMSF) and placed on ice for 20 min for saline precipitation. Cell debris is removed by centrifugation for 120 s at 1500 rpm at 4 °C and the supernatant fraction, which contains the DNA binding proteins, is stored at minus 20 °C. For the analysis of α–SMA and procollagen type I expression levels, 3×10^5 CFs seeded in 35 mm plates were used, which were incubated together with inhibitor compounds at a 5 μM, in the absence/presence of TGF–β1 (5 ng/mL) for 48 h. To obtain the total proteins, the CFs were washed three times with cold PBS, then scraped and lysed with 50 μL of radio inmuno-precipitation assay (RIPA) lysis buffer (10 mM Tris–HCl pH 7.2, 5 mM EDTA, 150 mM NaCl, Triton X–100 1%, sodium dodecyl sulfate (SDS) 0.1%, deoxycholate 1%, leupeptin 2 μg/mL, aprotinin 10mM, PMSF 1mM and Na3VO4 100μM). The solution was centrifuged for 15 min at 10,000 rpm and at 4 °C. The supernatant fraction containing the total proteins was stored at minus 20 °C. The concentration of proteins obtained was determined by spectrophotometry at 570 nm, using the Bradford method (Bio-Rad, Hercules, CA, USA).
(§2) CFs proteins (25 μg), were subjected to 10% sodium dodecyl sulfate-polyacrylamide gel electrophoresis and finally transferred onto a nitrocellulose membrane (Millipore, Billerica, MA, USA). The membrane was washed twice with tris–buffered saline solution containing 0.1% Tween 20 (TBST). After being blocked with TBST containing 5% nonfat milk for 40 min, the membrane was incubated with primary antibodies in TBST/1% nonfat milk at 4 °C overnight. The membrane was washed three times with TBST for a total of 15 min and then incubated with primary antibodies (ac–H4, H4 total, α-SMA, procollagen type I and GAPDH). Then the membrane was incubated with goat anti–rabbit or anti-mouse IgG antibodies conjugated with horseradish (diluted 1:1000) for 1 h at room temperature. Signals were developed with ECL reagents and exposure to photographic film.
Figure 4 CTz non–substituted inhibit α-SMA expression in cardiac fibroblasts. (A) CFs were exposed to 5a, 6a, 7a and 8a at 5 μM for 48 h. […] (B) CFs were exposed to 5a, 6a, 7a and 8a at 5 μM for 48 h in presence of TGF–β1 ([…]). α-SMA expression levels were measured by western blot. GAPDH was used as control load.

[2] = tested on: procollagen type I expression in CFs; test: Procollagen type I expression levels in cardiac fibroblasts, western blot; format: cell-based, rat; settings: derivatives 5 μM (TSA 0.1 μM) for 48 h in presence of TGF-β1
Procedure: In CFs collagen type I secretion is a hallmark of cardiac fibrosis development, which is regulated by HDACs. […] For this purpose, a fixed concentration of 5a, 6a, 7a and 8a derivatives in presence/absence of TGF-β1 were studied, and procollagen type I expression levels were measured by using the western blot technique. TSA was used as control and also for comparative purposes. In Figure 5 (A and B), in the upper panel representative photographs of procollagen type I expression level and GAPDH (used as charge control) are shown, whereas in the lower panel the graphic analyses are observed.
as §1, §2
Figure 5 CTz non–substituted inhibit procollagen type I expression levels in cardiac fibroblasts. […] (B) CFs were exposed to 5a, 6a, 7a and 8a at 5 μM for 48 h in presence of TGF–β1. Procollagen type I expression levels were measured by western blot. GAPDH was used as control load.

HDAC1 human recombinant = biological target: T1, HDAC1 human recombinant (Homo sapiens, UniProt Q13547); test: HDAC1 inhibitory activity, fluorometric kit; format: biochemical; settings: Class I
T1 construct: purchased Enzo Life Science BML-AK511
T1 sequence (Q13547 whole entry): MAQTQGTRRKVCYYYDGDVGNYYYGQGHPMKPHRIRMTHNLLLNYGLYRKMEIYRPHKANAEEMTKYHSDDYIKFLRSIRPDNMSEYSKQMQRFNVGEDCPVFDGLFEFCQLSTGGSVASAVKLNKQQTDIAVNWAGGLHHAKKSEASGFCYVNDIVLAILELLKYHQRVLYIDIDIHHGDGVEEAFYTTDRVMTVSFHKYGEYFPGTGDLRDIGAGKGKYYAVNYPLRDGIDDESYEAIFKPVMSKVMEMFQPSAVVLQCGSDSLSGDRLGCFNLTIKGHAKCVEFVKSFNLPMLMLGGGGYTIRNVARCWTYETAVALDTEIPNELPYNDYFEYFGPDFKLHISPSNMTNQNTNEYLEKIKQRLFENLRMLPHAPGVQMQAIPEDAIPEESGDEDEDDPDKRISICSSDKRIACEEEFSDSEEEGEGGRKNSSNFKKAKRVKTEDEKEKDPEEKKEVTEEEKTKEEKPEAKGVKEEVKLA

HDAC6 human recombinant = biological target: T2, HDAC6 human recombinant (Homo sapiens, UniProt Q9UBN7); test: HDAC6 inhibitory activity, fluorometric kit; format: biochemical; settings: Class II
T2 construct: purchased Enzo Life Science BML-AK516
T2 sequence (Q9UBN7 1-1215): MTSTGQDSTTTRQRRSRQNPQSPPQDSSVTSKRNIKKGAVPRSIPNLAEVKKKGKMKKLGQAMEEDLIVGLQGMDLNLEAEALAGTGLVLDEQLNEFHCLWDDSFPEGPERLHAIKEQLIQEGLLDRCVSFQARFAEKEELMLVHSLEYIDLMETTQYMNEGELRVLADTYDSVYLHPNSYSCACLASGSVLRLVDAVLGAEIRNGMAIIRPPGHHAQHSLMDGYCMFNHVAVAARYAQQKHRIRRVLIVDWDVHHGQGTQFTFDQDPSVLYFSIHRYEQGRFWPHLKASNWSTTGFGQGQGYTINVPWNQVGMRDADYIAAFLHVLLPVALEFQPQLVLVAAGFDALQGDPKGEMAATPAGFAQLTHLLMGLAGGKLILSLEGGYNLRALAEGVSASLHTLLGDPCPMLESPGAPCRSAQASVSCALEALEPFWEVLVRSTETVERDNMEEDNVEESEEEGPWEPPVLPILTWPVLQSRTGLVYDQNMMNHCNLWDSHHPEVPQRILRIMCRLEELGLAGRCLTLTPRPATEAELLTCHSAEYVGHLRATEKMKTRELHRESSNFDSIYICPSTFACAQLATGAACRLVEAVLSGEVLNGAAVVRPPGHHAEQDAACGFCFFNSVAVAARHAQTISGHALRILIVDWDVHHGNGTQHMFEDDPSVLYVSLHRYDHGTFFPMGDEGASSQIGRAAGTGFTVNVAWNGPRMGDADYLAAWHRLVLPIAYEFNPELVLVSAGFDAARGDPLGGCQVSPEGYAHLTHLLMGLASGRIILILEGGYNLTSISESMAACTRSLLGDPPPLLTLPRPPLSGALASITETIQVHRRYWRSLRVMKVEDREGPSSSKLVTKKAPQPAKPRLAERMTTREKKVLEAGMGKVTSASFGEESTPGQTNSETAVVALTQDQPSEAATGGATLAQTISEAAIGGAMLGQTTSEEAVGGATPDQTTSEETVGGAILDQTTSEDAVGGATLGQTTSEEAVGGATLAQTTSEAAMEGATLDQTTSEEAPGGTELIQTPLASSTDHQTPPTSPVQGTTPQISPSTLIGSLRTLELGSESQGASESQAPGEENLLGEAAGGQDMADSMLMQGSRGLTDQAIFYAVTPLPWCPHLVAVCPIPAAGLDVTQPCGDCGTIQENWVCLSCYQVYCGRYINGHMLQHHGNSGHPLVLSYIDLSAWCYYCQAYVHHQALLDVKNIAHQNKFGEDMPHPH

[3] = Cytotoxicity assay (Alamar Blue) in cardiac fibroblasts; format: cell-based, rat; settings: Sprague-Dawley, rat, primary neonatal rat cardiac fibroblasts (CFs), CFs treated for 48 h
Procedure: CFs were treated for 48 h with all the new CTz derivatives in a broad concentration range (100 μM^−1 mM), and their cytotoxicity was then evaluated. In Table 3 cytotoxic concentration 50 (CC50) values for each of the synthesized compounds are shown. […] When comparing the different ZBG the series 5 is the least cytotoxic for CFs, while series 8 was the most cytotoxic.
(§3) Sprague Dawley rats were obtained from the Animal Breeding Facility of the School of Chemical and Pharmaceutical Sciences at the University of Chile. All studies followed the Guide for the Care and Use of Laboratory Animals published by the US National Institutes of Health (NIH Publication 8th, 2011), and experimental protocols were approved by the University of Chile Institutional Ethics Review Committee. CF were isolated from of 2 or 3–day–old Sprague-Dawley rats and cultured as described previously. Briefly, the neonatal rats were decapitated and their hearts were extracted under aseptic environment. Atria were removed and ventricles were cut into small pieces (~1–2 mm) for posterior colagenase II digestion. The digestion yield was separated by 10 min centrifugation at 89×g. The pellet was resuspended in 10 mL of Dulbecco’s Modified Eagle’s Medium/Nutrient F-12 (DMEM-F12) supplemented with 10% FBS and antibiotics (100 μg/mL streptomycin and 100 units/mL penicillin) and cultured in a humid atmosphere of 5% CO2 and 95% O2 at 37°C until confluence (5 days). The purity of the CFs population was assessed through the expression of several markers. CFs had positive staining against vimentin (Santa Cruz Biotechnology), while being negative against sarcomeric actin and desmin (Sigma-Aldrich). Experiments were performed on cells at passage 1. Cells were cultured in 35-mm well plates and serum starved for 24 h prior to stimulation.
(§4) To evaluate cytotoxicity, CFs were seeded in 12 microwell plates at a ratio of 2 × 10^4 cell/cm^2, cultured in DMEM–F12 medium + 10% FBS, which was subsequently replaced by DMEM–F12. After 24 h of serum starvation derivatives were applied at proper times and concentrations in accordance to experimental procedures. Cell viability assays were carried out using Alamar Blue®, a nontoxic, cell permeable non fluorescent compound that is blue in color. Viable cells reduce resazurin to resorufin, which produces very bright red fluorescence which is used as a quantitative cell viability measure. 10 μL of 0.2 mg/mL Alamar Blue® was added into each well followed by incubation for 24 h. The fluorescence of Alamar Blue® was read using microplate reader at 570 excitation and emission to 595 nm. Cell survival was expressed as percentage over the untreated cells. To evaluate CFs proliferation assay, cells were seeded as mentioned before, and after serum starvation, they were stimulated by 10% fetal bovine serum (FBS), in presence/absence of CTz derivatives for 24 h, at concentrations according to experiment. Cell proliferation was quantified by Alamar Blue®, according to protocol mentioned before. Cell proliferation was expressed as percentage over the control FBS treated cells.

[4] = tested on: neonatal rat cardiac fibroblasts (CFs); test: FBS-induced cardiac fibroblast proliferation assay (Alamar Blue); format: cell-based; settings: 10% FBS-induced CF proliferation, 48 h, read-out: Inhibition percentage of cell proliferation
Procedure: CFs were treated for 48 h with 10% fetal bovine serum (FBS), to induce CFs proliferation in presence/absence of each new CTz derivatives in a concentration range of 1–10 μM. In Table 4, the inhibition percentage of cell proliferation for each concentration of the synthesized compounds are shown. All derivatives inhibited CFs proliferation induce by serum.
as §3, with “Cells were cultured in 35-mm well plates and serum starved for 24 h prior to stimulation.” left out
as §4, with “10 μL of 0.2 mg/mL Alamar Blue® was added into each well followed by incubation for 24 h.” left out, “To evaluate CFs proliferation assay, cells were seeded as mentioned before, and after serum starvation, they were stimulated by 10% fetal bovine serum (FBS), in presence/absence of CTz derivatives for 24 h, at concentrations according to experiment.” left out

With CC(/C=C/C(=O)NO)=C\[C@@H](C)C(=O)c1ccc(N(C)C)cc1 [TSA, trichostatin A, reference compound] the IC50 [1] was 5 ± 0.12 nM, the “α-SMA expression levels induced by TGF-β1” value (α-SMA expression in CFs) was “decrease close to control levels” and the “procollagen type I expression levels induced by TGF-β1” value [2] was “decreased, close to control levels”.
Work on O=C(CCCCC1CCSS1)Nc1nc(-c2cc3cc(Br)ccc3oc2=O)cs1 (centres unmarked) [Compound 5b, 5-[1,2]-Dithiolan-3-yl-N-[4-(6-bromo-2-oxo-2H-chromen-3-yl)-thiazol-2-yl]-pentanamide] yielded an IC50 [1] of 62.1 ± 2.5 nM, an IC50 (HDAC1 human recombinant) of 47.6 ± 2.3 nM and an IC50 (HDAC6 human recombinant) of 123 ± 5.1 nM. For the same compound, the CC50 at 48 h [3] was 127000 ± 19200 nM, the inhibition at 1 µM ([4]; 1 μM) was 71.5 ± 3.8% and the inhibition at 5 µM ([4]; 5 μM) was 89.1 ± 9.5%. The inhibition at 10 µM ([4]; 10 μM) was 96.4 ± 4.7% and the melting point was 150 to 153 °C.

— paper PMC6412891, “Synthesis and Biological Evaluation of Novel Thiazolyl-Coumarin Derivatives as Potent Histone Deacetylase Inhibitors with Antifibrotic Activity” (Molecules, 2019)
